Here are results for 19 compounds from article PMC6522510 (Nature Communications, 2019).

Assay [1] has as its system MOLM-13. Description: Secondary dose-response HTS, Cell Titer Glo. The class given is cell-based, human. The settings on record: secondary high-throughput screen, MOLM-13; for EC50: Homo sapiens, read-out: average effective concentration, MOLM-13. (In general: In ATP-based viability assays light output follows the ATP content of the culture.)
Assay [2] concerns M07e. Description: Secondary dose-response HTS, Cell Titer Glo. The class given is cell-based, human. The settings on record: secondary high-throughput screen; for EC50: Homo sapiens, M-07e, read-out: average effective concentration, M07e.
Assay [3] concerns ML2. Description: Secondary dose-response HTS, Cell Titer Glo. The class given is cell-based, human. The conditions noted are these: secondary high-throughput screen, ML-2; for EC50: Homo sapiens, read-out: average effective concentration, ML-2.
Assay [4] deals with MV4-11. Kind of assay: cells. Details: species or system AML cell lines (8); Secondary HTS, 10-point dose-response in triplicate, Cell Titer Glo viability, four-parameter fit EC50. The settings on record: Homo sapiens, MV4-11, 72 h, read-out: MV4-11.
For assay [5], the system named is U937. Description: Secondary dose-response HTS, Cell Titer Glo. The class given is cell-based, human. The conditions noted are these: secondary high-throughput screen, U937; for EC50: Homo sapiens, U-937, read-out: average effective concentration, U937.
Assay [6] has as its system CMK. Description: Secondary dose-response HTS, Cell Titer Glo. The class given is cell-based, human. The conditions noted are these: CMK; for EC50: Homo sapiens, read-out: average effective concentration, CMK.
The test system of assay [7] is CHRF288-11. Description: Secondary dose-response HTS, Cell Titer Glo. The class given is cell-based, human. The settings on record: secondary high-throughput screen, CHRF288-11; for EC50: Homo sapiens, HTS, read-out: average effective concentration, CHRF288-11.
The subject of assay [8] is CMS. Kind of assay: Secondary dose-response HTS, Cell Titer Glo. The class given is cell-based, human. The conditions noted are these: for EC50: Homo sapiens, HTS, read-out: average effective concentration, CMS.
Assay [9] deals with MV4-11. Kind of assay: Secondary dose-response HTS, Cell Titer Glo. It counts as cell-based, human. The conditions noted are these: secondary high-throughput screen, MV4-11; for EC50: Homo sapiens, read-out: average effective concentration, MV4-11.
The mark [10] stands for this setting: secondary high-throughput screen.
Setting [11] is: secondary high-throughput screen, CMS.

Like-named read-outs stand apart in the source and are kept apart here.

As for `Nc1cc(F)ccc1NC(=O)/C=C/c1cnn(C/C=C/c2ccccc2)c1` [RGFP966], the EC50 in assay [1] is > 10000 nM; in assay [2] ([…]) it was 10000 nM; in assay [3], > 10000 nM; in assay [4] it was > 10000 nM; in assay [5], > 10000 nM; in assay [6] (setting [10]) it was 6000 nM. The results for the EC50 in assay [7] and in assay [8] (setting [11]) were 7300 nM and 9300 nM, respectively.
For the compound `CSCC[C@@H](NC(=O)c1ccc(CNCc2cnc[nH]2)cc1-c1ccccc1C)C(=O)OCc1ccccc1` [FTI-2628], the “average effective concentration, MOLM-13” value in assay [1] was “Inactive”. In addition, the “average effective concentration, M07e” value in [2] (M07e) is reported as “Inactive”. The “average effective concentration, MV4-11” value in [9] is given as “Inactive”. The “average effective concentration, ML-2” value in assay [3] is on record as “Inactive”. The “average effective concentration, CMK” value in [6] (setting [10]) is listed as “Inactive”. In [7], the “average effective concentration, CHRF288-11” value is given as “Inactive”. In [8] (setting [11]), the “average effective concentration, CMS” value is reported as “Inactive”.
Take `N#CCNC(=O)c1ccc(-c2ccnc(Nc3ccc(N4CCOCC4)cc3)n2)cc1` [CYT-387]: the EC50 in assay [1] was 1200 nM; in [2] (M07e), 270 nM; in assay [3], > 10000 nM; in assay [4], > 10000 nM; in [5] it was 7600 nM; in assay [6] it was 1800 nM. Further, the EC50 in assay [7] worked out at 3800 nM; in [8], 340 nM.
As for `OCCN1CCN(CCCN2c3ccccc3Sc3ccc(C(F)(F)F)cc32)CC1` [FLUFENAZINE], in [1], the “average effective concentration, MOLM-13” value is given as “Inactive”. For the same compound, the “average effective concentration, M07e” value in assay [2] (M07e) is listed as “Inactive”. Also, the “average effective concentration, MV4-11” value in assay [9] was “Inactive”. For the same compound, in assay [5], the “average effective concentration, U937” value is “Inactive”. Besides, the “average effective concentration, CMK” value in assay [6] (setting [10]) is recorded as “Inactive”. Also, the “average effective concentration, CHRF288-11” value in [7] was “Inactive”. The “average effective concentration, CMS” value in [8] (setting [11]) is “Inactive”.
`CC(=O)Nc1ccc(C(=O)Nc2ccccc2N)cc1` [TACEDINALINE]: the EC50 in [1] is 2200 nM; in assay [2] (M07e) it was 4100 nM; in [3] it was > 10000 nM; in assay [4], > 10000 nM; in [5] it was > 10000 nM; in assay [6] (setting [10]), 6800 nM. Besides, the values for the EC50 in assay [7] and in assay [8] (setting [11]) were > 10000 nM and 9000 nM, respectively.
Regarding `O=C(/C=C/c1cccc(S(=O)(=O)Nc2ccccc2)c1)NO` [BELINOSTAT], the EC50 in [1] is 270 nM; in assay [2] (M07e), 190 nM; in assay [3] it was 350 nM; in assay [4], > 10000 nM; in [5], 170 nM; in assay [6] it was 14 nM. In addition, the EC50 in assay [7] came to 240 nM; in assay [8] it was 250 nM.
As to `O=[As]O[As]=O` (centres unmarked) [ARSENIC TRIOXIDE], the “average effective concentration, MOLM-13” value in assay [1] is “Inactive”. In [2] ([…]), the “average effective concentration, M07e” value is recorded as “Inactive”. Further, the “average effective concentration, MV4-11” value in assay [9] was “Inactive”. Moreover, the “average effective concentration, ML-2” value in assay [3] was “Inactive”. The “average effective concentration, U937” value in [5] is reported as “Inactive”. Further, the “average effective concentration, CHRF288-11” value in [7] is reported as “Inactive”. Moreover, the “average effective concentration, CMS” value in assay [8] (setting [11]) is “Inactive”.
For `O=C(O)c1ccc(O)c2ncccc12` [IOX 1], the “average effective concentration, MOLM-13” value in assay [1] was “Inactive”. Besides, in assay [2] (M07e), the “average effective concentration, M07e” value is recorded as “Inactive”. Moreover, in assay [9], the “average effective concentration, MV4-11” value is “Inactive”. For the same compound, the “average effective concentration, ML-2” value in assay [3] is reported as “Inactive”. In [5], the “average effective concentration, U937” value is given as “Inactive”. Besides, in assay [7], the “average effective concentration, CHRF288-11” value was “Inactive”. In [8] (setting [11]), the “average effective concentration, CMS” value is given as “Inactive”.
Regarding `COc1cc2nc(N3CCCN(C)CC3)nc(NC3CCN(Cc4ccccc4)CC3)c2cc1OC` [BIX 01294], the EC50 in assay [1] is 2500 nM; in assay [2] (M07e) it was > 10000 nM; in [9], 3000 nM; in assay [3] it was 3600 nM; in [5], 2000 nM; in assay [7], 4400 nM. Further, the EC50 in assay [8] (setting [11]) was > 10000 nM.
For `Fc1ccc(CNc2ncnc3ccc(F)cc23)cc1` [SPAUTIN-1], in assay [1], the “average effective concentration, MOLM-13” value is recorded as “Inactive”. In assay [2] ([…]), the “average effective concentration, M07e” value is listed as “Inactive”. The “average effective concentration, MV4-11” value in assay [9] was “Inactive”. Further, the “average effective concentration, ML-2” value in assay [3] was “Inactive”. In assay [6] (setting [10]), the “average effective concentration, CMK” value is listed as “Inactive”. The “average effective concentration, CHRF288-11” value in [7] was “Inactive”. In [8] (setting [11]), the “average effective concentration, CMS” value was “Inactive”.
Consider `NC1CC1c1cc(F)cc(F)c1OCc1ccccc1` (centres unmarked) [Compound S2101], for which the “average effective concentration, MOLM-13” value in assay [1] is “Inactive”. In [2] (M07e), the “average effective concentration, M07e” value is on record as “Inactive”. In addition, in assay [9], the “average effective concentration, MV4-11” value is “Inactive”. Besides, the “average effective concentration, ML-2” value in [3] is “Inactive”. Further, the “average effective concentration, U937” value in assay [5] is recorded as “Inactive”. Also, the “average effective concentration, CHRF288-11” value in [7] is on record as “Inactive”. The “average effective concentration, CMS” value in assay [8] (setting [11]) is “Inactive”.
Turning to `C#Cc1cccc(Nc2ncnc3cc(OC)c(OCCCCCCC(=O)NO)cc23)c1` [CUDC-101], the EC50 in [1] is 5600 nM; in assay [2] (M07e), 190 nM; in assay [3], 83 nM; in assay [4], > 10000 nM; in [5], 140 nM; in assay [6] it was 73 nM. Besides, the EC50 in assay [7] is 600 nM; in [8], 780 nM.
Consider `[NH4+].[NH4+].[SH-].[SH-].[S]=[Mo]=[S]` [AMMONIUM TETRATHIOMOLYBDATE], for which, in [1], the “average effective concentration, MOLM-13” value is “Inactive”. In assay [2] (M07e), the “average effective concentration, M07e” value was “Inactive”. Further, the “average effective concentration, MV4-11” value in [9] was “Inactive”. The “average effective concentration, ML-2” value in assay [3] was “Inactive”. The “average effective concentration, U937” value in assay [5] was “Inactive”. Moreover, the “average effective concentration, CHRF288-11” value in [7] was “Inactive”. Besides, the “average effective concentration, CMS” value in assay [8] (setting [11]) is “Inactive”.
With `CN(C)Cc1ccc(S(=O)(=O)n2ccc(/C=C/C(=O)NO)c2)cc1` [RESMINOSTAT], the EC50 in assay [1] was 2000 nM; in [2] (M07e) it was 1100 nM; in [3], 5000 nM; in assay [4], > 10000 nM; in assay [5] it was 3500 nM; in assay [6] (setting [10]) it was 1700 nM. The values for the EC50 in assay [7] and in [8] (setting [11]) were 4700 nM and 3100 nM, respectively.
As for `Nc1ncnc2c1nc(Cl)n2[C@@H]1O[C@H](CO)[C@@H](O)[C@H]1O` [Compound 8-CHLOROADENOSINE], the EC50 in assay [1] came out at 2200 nM; in [2] (M07e), 1 nM; in assay [9], 250 nM; in [3], 2800 nM; in assay [5] it was 1000 nM; in [7] it was 1200 nM. Further, in [8], the EC50 turned out to be 4400 nM.
Regarding `C1=C/COCc2cc(ccc2OCCN2CCCC2)Nc2nccc(n2)-c2cccc(c2)COC/1` [PACRITINIB], the EC50 is 310 nM in assay [1]; 6700 nM in assay [2] (M07e); 130 nM in [3]; > 10000 nM in assay [4]; 280 nM in assay [5]; 5000 nM in assay [6]. In addition, the values for the EC50 in [7] and in assay [8] were 2400 nM and 2000 nM, respectively.
`N[C@@H]1C[C@H]1c1ccccc1` (racemic) [TRANYLCYPROMINE]: the “average effective concentration, MOLM-13” value in [1] is listed as “Inactive”. In addition, the “average effective concentration, M07e” value in [2] (M07e) was “Inactive”. Besides, the “average effective concentration, MV4-11” value in assay [9] is on record as “Inactive”. The “average effective concentration, ML-2” value in assay [3] is recorded as “Inactive”. Further, in assay [5], the “average effective concentration, U937” value is on record as “Inactive”. In assay [7], the “average effective concentration, CHRF288-11” value is “Inactive”. Also, in [8] (setting [11]), the “average effective concentration, CMS” value is “Inactive”.
In the case of `N[C@@H]1CCCN(c2c(/C=C3\SC(=O)NC3=O)cccc2-c2ccccc2)C1` [AZD1208], the “average effective concentration, MOLM-13” value in [1] is “Inactive”. The “average effective concentration, M07e” value in assay [2] (M07e) is given as “Inactive”. Also, the “average effective concentration, MV4-11” value in [9] is recorded as “Inactive”. For the same compound, in [3], the “average effective concentration, ML-2” value is “Inactive”. In addition, the “average effective concentration, U937” value in assay [5] is given as “Inactive”. The “average effective concentration, CMK” value in [6] (setting [10]) is reported as “Inactive”. Besides, in assay [8] (setting [11]), the “average effective concentration, CMS” value is “Inactive”.
On to `CSCC[C@H](NC(=O)c1ccc(NC(=O)[C@@H](N)CS)cc1)C(=O)O` [H-CYS-4-ABZ-MET-OH], for which the “average effective concentration, MOLM-13” value in assay [1] is “Inactive”. In assay [2] (M07e), the “average effective concentration, M07e” value was “Inactive”. The “average effective concentration, MV4-11” value in assay [9] was “Inactive”. In assay [3], the “average effective concentration, ML-2” value is reported as “Inactive”. Besides, the “average effective concentration, CMK” value in [6] (setting [10]) is reported as “Inactive”. In addition, in [7], the “average effective concentration, CHRF288-11” value is “Inactive”. In addition, the “average effective concentration, CMS” value in [8] (setting [11]) is on record as “Inactive”.
